These results are taken from publication PMC8593678, “Berberine Improves Irinotecan-Induced Intestinal Mucositis Without Impairing the Anti-colorectal Cancer Efficacy of Irinotecan by Inhibiting Bacterial β-glucuronidase” (Frontiers in Pharmacology, 2021).

In the experiment the target is T1, β-glucuronidase (GUS) (Escherichia coli, UniProt P05804).
T1 construct: gene uidA
As to the kind of experiment: fluorescent 4-MUG hydrolysis assay with purchased E. coli GUS; Lineweaver-Burk plots. The format is biochemical.

T1 sequence (P05804 whole entry): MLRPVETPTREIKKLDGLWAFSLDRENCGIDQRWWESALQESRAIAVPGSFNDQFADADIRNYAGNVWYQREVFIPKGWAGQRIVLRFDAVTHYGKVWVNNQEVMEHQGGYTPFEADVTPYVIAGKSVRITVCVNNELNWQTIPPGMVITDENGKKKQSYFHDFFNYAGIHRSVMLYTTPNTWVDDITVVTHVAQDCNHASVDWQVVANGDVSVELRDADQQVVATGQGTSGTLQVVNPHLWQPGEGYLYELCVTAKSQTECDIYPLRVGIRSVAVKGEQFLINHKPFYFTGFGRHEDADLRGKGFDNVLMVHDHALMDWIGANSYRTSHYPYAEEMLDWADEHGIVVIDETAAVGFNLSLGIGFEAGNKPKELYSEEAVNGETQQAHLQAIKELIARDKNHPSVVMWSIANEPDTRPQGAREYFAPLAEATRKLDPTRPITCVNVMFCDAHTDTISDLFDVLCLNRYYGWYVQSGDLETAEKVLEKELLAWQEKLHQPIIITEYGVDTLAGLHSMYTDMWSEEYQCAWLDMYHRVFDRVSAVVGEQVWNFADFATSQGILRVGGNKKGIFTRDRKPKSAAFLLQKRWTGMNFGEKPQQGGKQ

As a reminder, the IC50 is the concentration needed to halve the response being measured. A high value points to a need for much substance. For the molecule `COc1ccc2cc3[n+](cc2c1OC)CCc1cc2c(cc1-3)OCO2` [Berberine, 9,10-dimethoxy-5,6-dihydro-(1,3)dioxolo (4,5-g)isoquinolino (3,2-a)isoquinolin-7-ium], half-maximal inhibition (IC50) was put at 54 ± 5.1 µM.
